Measured values published in patent US9334246B2, “Substituted triazines for malaria treatment and chemoprophylaxis” (The United States of America, as represented by the …, priority 2013, dated 2016).

Tests used:
[1] = tested on: P. falciparum D6; test: Malaria SYBR Green Fluorescence Assay, D6 strain; type: cell-based, Plasmodium falciparum; conditions: for D6: SYBR Green Assay
[2] = tested on: P. falciparum W2; test: Malaria SYBR Green Fluorescence Assay, W2 strain; type: cell-based, Plasmodium falciparum; conditions: for W2: SYBR Green Assay
[3] = tested on: P. falciparum C235; test: Malaria SYBR Green Fluorescence Assay, C235 strain; type: cell-based, Plasmodium falciparum; conditions: for C235: SYBR Green Assay
[4] = tested on: P. berghei; test: Thompson Test, in vivo mouse malaria assay; parameters: species or system mice (ICR strain)
[5] = molecular target: hERG potassium ion channel (Homo sapiens, UniProt Q12809); test: hERG patch clamp assay (% inhibition at 10 μM)
[6] = (160 × 3): 160 mg/kg for 3 days
[7] = % inhibition at 10 μM, patch clamp

Chain of hERG potassium ion channel (Q12809 whole entry): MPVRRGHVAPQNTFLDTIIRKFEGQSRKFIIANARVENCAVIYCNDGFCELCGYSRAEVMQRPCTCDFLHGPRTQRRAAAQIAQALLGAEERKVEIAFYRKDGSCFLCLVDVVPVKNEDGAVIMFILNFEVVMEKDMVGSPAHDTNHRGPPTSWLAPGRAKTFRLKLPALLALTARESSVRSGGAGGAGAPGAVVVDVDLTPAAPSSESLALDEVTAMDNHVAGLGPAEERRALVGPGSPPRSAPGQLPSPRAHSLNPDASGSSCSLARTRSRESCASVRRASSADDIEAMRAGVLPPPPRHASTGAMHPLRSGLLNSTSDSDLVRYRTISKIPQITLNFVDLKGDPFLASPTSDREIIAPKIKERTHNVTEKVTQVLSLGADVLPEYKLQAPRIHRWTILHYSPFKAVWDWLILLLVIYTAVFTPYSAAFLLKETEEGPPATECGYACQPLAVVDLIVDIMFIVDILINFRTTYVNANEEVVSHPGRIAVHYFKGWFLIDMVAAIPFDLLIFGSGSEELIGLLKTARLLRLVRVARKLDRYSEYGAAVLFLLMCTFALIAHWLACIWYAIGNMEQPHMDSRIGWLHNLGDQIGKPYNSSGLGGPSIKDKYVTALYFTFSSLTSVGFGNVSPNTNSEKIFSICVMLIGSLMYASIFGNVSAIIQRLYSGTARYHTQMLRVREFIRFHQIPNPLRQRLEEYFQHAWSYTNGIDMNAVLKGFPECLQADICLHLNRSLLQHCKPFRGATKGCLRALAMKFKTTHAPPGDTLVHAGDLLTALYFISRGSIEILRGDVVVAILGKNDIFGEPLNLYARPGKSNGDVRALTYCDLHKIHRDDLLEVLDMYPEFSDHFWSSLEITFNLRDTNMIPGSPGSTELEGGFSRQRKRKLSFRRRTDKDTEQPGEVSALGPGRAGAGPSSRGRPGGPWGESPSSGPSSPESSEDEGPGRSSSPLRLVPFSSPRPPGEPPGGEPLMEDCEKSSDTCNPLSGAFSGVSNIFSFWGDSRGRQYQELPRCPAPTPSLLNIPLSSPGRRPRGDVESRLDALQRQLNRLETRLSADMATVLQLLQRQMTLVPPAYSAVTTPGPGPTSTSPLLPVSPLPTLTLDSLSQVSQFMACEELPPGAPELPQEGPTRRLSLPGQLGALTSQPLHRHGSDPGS

Row | Compound | D6 [1] [ng/mL] | W2 [2] [ng/mL] | C235 [3] [ng/mL] | In vivo Results Thompson Assay (n/N Cures or Suppressive) ([4]; (40 × 3): 40 mg/kg for 3 days) | In vivo Results Thompson Assay (n/N Cures or Suppressive) ([4]; (80 × 3): 80 mg/kg for 3 days) | hERG ([5]; hERG activity as % inhibition) [%] | D6 (SYBR Green Assay IC50) [1] [ng/mL] | W2 (SYBR Green Assay IC50) [2] [ng/mL] | C235 (SYBR Green Assay IC50) [3] [ng/mL] | hERG (% inhibition) ([5]; 10 μM) [%] | In vivo Results Thompson Assay (n/N Cures or Suppressive) [4, 6] | hERG [5, 7] [%]
1 | NC1CCN(CC1)c2nc(nc(n2)C(Cl)(Cl)Cl)c3ccc(cc3)C(Cl)(Cl)Cl [Compound 743] | 22 | 16 | 14 | Suppressive | (80 × 3) 3/5 Cures; (40 × 3) | 15 |  |  |  |  |  | 
2 | CCC(N)(CC)CNc1nc(-c2ccc(S(C)(=O)=O)cc2)nc(C(Cl)(Cl)Cl)n1 [Compound 365] |  |  |  |  | (80 × 3) Suppressive |  | 5 | 5 | 10 | 69 |  | 
3 | ClC(Cl)(Cl)c1ccc(cc1)c2nc(nc(n2)C(Cl)(Cl)Cl)N3CC4CC3CN4 [Compound 722] | 9 | 5 | 12 |  | Suppressive | 14 |  |  |  |  | 5/5 | 
4 | CC(C)(C)c1ccc(-c2nc(NCC3(N)CCOCC3)nc(C(Cl)(Cl)Cl)n2)cc1 [Compound 314] | 7 | 2 | 16 |  | (80 × 3) Suppressive |  |  |  |  |  |  | 5
5 | CCN1CCCC(Nc2nc(-c3ccc(C(C)(C)C)cc3)nc(C(Cl)(Cl)Cl)n2)C1 (centres unmarked) [Compound 79] | 26 | 25 | 36 |  | (80 × 3) Suppressive |  |  |  |  |  |  | 51
6 | CS(=O)(=O)c1ccc(-c2nc(N3CCCNCC3)nc(C(Cl)(Cl)Cl)n2)cc1 [Compound 96] | 70 | 51 | 96 |  | (80 × 3) Suppressive |  |  |  |  |  |  | 65
7 | CC(C)(N)CNc1nc(-c2ccccc2)nc(C(Cl)(Cl)Cl)n1 [Compound 312] | 8 | 3 | 18 | Suppressive | (80 × 3) 3/3 Cures;(40 × 3) |  |  |  |  |  |  | 65
8 | CS(=O)(=O)c1ccc(-c2nc(N3CC4CC3CN4)nc(C(Cl)(Cl)Cl)n2)cc1 (centres unmarked) [Compound 724, CS(═O)(═O)c1ccc(cc1)c2nc(nc(n2)C(Cl)(Cl)Cl)N3CC4CC3CN4] | 106 | 71 | 110 |  | (80 × 3) Suppressive | 70 |  |  |  |  |  | 
9 | CN1CCN(c2nc(-c3ccc(C(Cl)(Cl)Cl)cc3)nc(C(Cl)(Cl)Cl)n2)CC1 [Compound 99] | 59 | 12 | 21 |  | (80 × 3) Suppressive |  |  |  |  |  |  | 16
10 | COc1cccc(-c2nc(NC3CCN(C)CC3)nc(C(Cl)(Cl)Cl)n2)c1 [Compound 193] | 29 | 22 | 17 |  | (80 × 3) Suppressive |  |  |  |  |  |  | 93
11 | CN1CCCN(c2nc(-c3ccc(Cl)c(Cl)c3)nc(C(Cl)(Cl)Cl)n2)CC1 [Compound 113] | 33 | 23 | 35 |  | Suppressive |  |  |  |  |  | 4/5 | 64
12 | CC(C)(N)CNc1nc(-c2ccc(S(C)(=O)=O)cc2)nc(C(Cl)(Cl)Cl)n1 [Compound 97] | 26 | 20 | 33 |  | (80 × 3) Suppressive; |  |  |  |  |  | (160 × 3) Suppressive | 35
13 | CC(C)(N)CNc1nc(-c2cccc(C(F)(F)F)c2)nc(C(Cl)(Cl)Cl)n1 [Compound 214] | 19 | 11 | 10 | 2/5 | 5/5 |  |  |  |  |  |  | 42
